Laboratory results as given in patent US7138361B2, “Herbicidal heterocycles” (E. I. du Pont de Nemours and Company, priority 2000, dated 2006).

Experiments:
Format in all cases: in vivo
[1] = test system: morningglory (Ipomoea hederacea); assay: Test C preemergence; conditions: for Plant response rating (0 to 100), Morningglory: visual evaluation after 12 to 14 days
Outline: (§1)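 Each compound was dissolved in a non-phytotoxic solvent system containing a surfactant and sprayed either on freshly planted seeds (preemergence) or on young plants, 2 to 18 cm high (postemergence). Ratings after 12 to 14 greenhouse days ran from 0, no effect, to 100, complete control.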

[2] = test system: crabgrass (Digitaria sanguinalis); assay: Test C preemergence; conditions: for Plant response rating (0 to 100), Crabgrass: visual evaluation after 12 to 14 days
Outline: as §1

[3] = test system: goosegrass (Eleusine indica); assay: Test C preemergence; conditions: for Plant response rating (0 to 100), Goosegrass: visual evaluation after 12 to 14 days
Outline: as §1

[4] = test system: yellow nutsedge (Cyperus esculentus); assay: Test C preemergence; conditions: for Plant response rating (0 to 100), Nutsedge: visual evaluation after 12 to 14 days
Outline: as §1

[5] = test system: smallflower flatsedge (Cyperus difformis); assay: Test B flooded paddy test; conditions: Rate 1000 g/ha, scale of 0 to 100 where 0 is no effect and 100 is complete control, visually evaluated after 13 to 15 days
Outline: (§2)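 Greenhouse-held for 13 to 15 days after treatment at the 2-leaf stage, paddy-grown plants were scored visually against controls on a 0-to-100 control scale; a dash marks no test result.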

rice (Oryza saliva) = assay: Test B flooded paddy test; conditions: Rate 1000 g/ha, scale of 0 to 100 where 0 is no effect and 100 is complete control, visually evaluated after 13 to 15 days
Outline: as §2

[6] = test system: duck salad (Heteranthera limosa); assay: Test B flooded paddy test; conditions: Rate 1000 g/ha, scale of 0 to 100 where 0 is no effect and 100 is complete control, visually evaluated after 13 to 15 days
Outline: as §2

[7] = test system: barnyardgrass (Echinochloa crus-galli); assay: Test B flooded paddy test; conditions: Rate 1000 g/ha, scale of 0 to 100 where 0 is no effect and 100 is complete control, visually evaluated after 13 to 15 days
Outline: as §2

Sunflower = assay: Test C preemergence; conditions: scale 0 to 100
[8] = test system: giant foxtail (Setaria faberii); assay: Test C postemergence
Outline: as §1

[9] = test system: morningglory (Ipomoea hederacea); assay: Test C postemergence
Outline: as §1

[10] = test system: Surinam grass (Brachiaria decumbens); assay: Test C postemergence
Outline: as §1

[11] = test system: bermudagrass (Cynodon dactylon); assay: Test C postemergence
Outline: as §1

corn (Zea mays) = assay: Test C postemergence
Outline: as §1

[12] = test system: pigweed (Amaranthus retroflexus); assay: Test C postemergence
Outline: as §1

[13] = test system: lambsquarters (Chenopodium album); assay: Test C postemergence
Outline: as §1

[14] = test system: common ragweed (Ambrosia elatior); assay: Test C postemergence
Outline: as §1

[15] = test system: morning glory (Ipomoea spp.); assay: Test A postemergence, sprayed to runoff; design: scale not given here; conditions: Morningglory, approx. eleven days
Method: (§3) Seeds of barnyardgrass (Echinochloa crus-galli), crabgrass (Digitaria spp.), giant foxtail (Setaria viridis), morning glory (Ipomoea spp.), redroot pigweed (Amaranthus retroflexus) and velvetleaf (Abutilon theophrasti) were planted into a sandy loam soil and treated preemergence by soil drench with test chemicals formulated in a non-phytotoxic solvent mixture which included a surfactant. At the same time, these crop and weed species were also treated postemergence sprayed to runoff with test chemicals formulated in the same manner. Plants ranged in height from two to eighteen cm and were in the one- to two-leaf stage for the postemergence treatment. Treated plants and untreated controls were maintained in a greenhouse for approximately eleven days, after which time all treated plants were compared to untreated controls and visually evaluated for injury. Plant response ratings, summarized in Table A, are based on a 0 to 10 scale where 0 is no effect and 10 is complete control. A dash (-) response means no test results.

[16] = test system: velvetleaf (Abutilon theophrasti); assay: Test A postemergence, sprayed to runoff; design: scale not given here; conditions: approx. eleven days
Method: as §3

[17] = Rate 62 g/ha, scale 0 to 100, 0 no effect, 100 complete control
[18] = preemergence, Rate 31 g/ha, scale 0 to 100
[19] = preemergence, Rate 125 g/ha, scale 0 to 100, 0 no effect, 100 complete control
[20] = Rate 125 g/ha, scale 0 to 100, 0 no effect, 100 complete control
[21] = preemergence, Rate 62 g/ha, scale 0 to 100
[22] = preemergence, Rate 250 g/ha, scale 0 to 100, 0 no effect, 100 complete control
[23] = Preemergence, Rate 500 g/ha, scale 0 to 100
[24] = Rate 250 g/ha, scale 0 to 100 (0 no effect, 100 complete control)
[25] = Rate 500 g/ha, scale 0 to 100 (0 no effect, 100 complete control)

CCC(CC)c1ccn(C2SCN(c3cccc(C(F)(F)F)c3)C2=O)n1 (stereo not drawn) [Compound 21]
20: Plant response rating, Morningglory [1, 17] | Plant response rating, Morningglory [1, 19] | Plant response rating, Nutsedge [4, 18] | Plant response rating, Sunflower (Sunflower; Rate 31 g/ha)
70: Plant response rating, Pigweed [12, 20] | Plant response rating, Lambsquarters ([13]; Rate 31 g/ha, scale 0 to 100)
100: Plant response rating, Crabgrass [2, 19] | Plant response rating, Goosegrass [3, 19] | Plant response rating, Flatsedge [5] | Plant response rating, Ducksalad [6] | Plant response rating, Barnyardgrass [7]
80: Plant response rating, Goosegrass [3, 17] | Plant response rating, Goosegrass [3, 18] | Plant response rating, Lambsquarters [13, 20]
60: Plant response rating, Nutsedge [4, 19] | Plant response rating, Morningglory [9, 20]
90: Plant response rating, Crabgrass [2, 17] | Plant response rating, Crabgrass [2, 18] | Plant response rating, Rice (rice (Oryza saliva))
50: Plant response rating, Nutsedge [4, 17] | Plant response rating, Bermudagrass ([11]; Rate 31 g/ha, scale 0 to 100) | Plant response rating, Bermudagrass [11, 17] | Plant response rating, Bermudagrass [11, 20] | Plant response rating, Pigweed ([12]; Rate 31 g/ha, scale 0 to 100) | Plant response rating, Ragweed, Common [14, 20]
0: Plant response rating, Morningglory [1, 18] | Plant response rating, Foxtail, Giant ([8]; Rate 31 g/ha, scale 0 to 100) | Plant response rating, Foxtail, Giant [8, 20] | Plant response rating, Morningglory ([9]; Rate 31 g/ha, scale 0 to 100) | Plant response rating, Surinam grass ([10]; Rate 31 g/ha, scale 0 to 100) | Plant response rating, Surinam grass [10, 17] | Plant response rating, Surinam grass [10, 20] | Plant response rating, Corn (corn (Zea mays); Rate 31 g/ha, scale 0 to 100) | Plant response rating, Corn (corn (Zea mays); [20]) | Plant response rating, Ragweed, Common ([14]; Rate 31 g/ha, scale 0 to 100)

CC1CCc2cn(C3CCN(c4cccc(C(F)(F)F)c4)C3=O)nc21 (stereo not drawn) [Compound 11]
100: Plant response rating, Flatsedge [5]
10: Plant response rating (visual injury vs untreated controls) ([15]; Rate 500 g/ha) | Plant response rating (visual injury vs untreated controls) ([15]; Rate 2000 g/ha)
90: Plant response rating, Ducksalad [6]
40: Plant response rating, Rice (rice (Oryza saliva))
60: Plant response rating, Barnyardgrass [7]
0: Plant response rating (visual injury vs untreated controls) ([16]; Rate 500 g/ha) | Plant response rating (visual injury vs untreated controls) ([16]; Rate 2000 g/ha)

CC(C)(C)c1ccn(C2SCN(c3cccc(C(F)(F)F)c3)C2=O)n1 (stereo not drawn) [Compound 1]
90: Plant response rating (visual injury vs untreated controls) ([15]; Rate 500 g/ha) | Plant response rating (visual injury vs untreated controls) ([15]; Rate 2000 g/ha)
10: Plant response rating (visual injury vs untreated controls) ([16]; Rate 500 g/ha)
30: Plant response rating (visual injury vs untreated controls) ([16]; Rate 2000 g/ha)

CC(C)(C)c1ccn(C2CCN(c3cccc(I)c3)C2=O)n1 (stereo not drawn) [Compound 88]
10: Plant response rating, Morningglory [1, 20] | Plant response rating, Morningglory [1, 21] | Plant response rating (0 to 100), Nutsedge ([4]; preemergence, Rate 500 g/ha) | Plant response rating (visual injury vs untreated controls) ([15]; Rate 500 g/ha) | Plant response rating, Sunflower (Sunflower; Rate 62 g/ha)
30: Plant response rating (0 to 100), Morningglory ([1]; preemergence, Rate 500 g/ha) | Plant response rating, Morningglory [1, 22] | Plant response rating (visual injury vs untreated controls) ([15]; Rate 2000 g/ha)
100: Plant response rating, Crabgrass [2, 20] | Plant response rating, Crabgrass [2, 21] | Plant response rating (0 to 100), Crabgrass ([2]; preemergence, Rate 500 g/ha) | Plant response rating, Crabgrass [2, 22] | Plant response rating, Goosegrass [3, 20] | Plant response rating, Goosegrass [3, 21] | Plant response rating (0 to 100), Goosegrass ([3]; preemergence, Rate 500 g/ha) | Plant response rating, Goosegrass [3, 22]
0: Plant response rating, Nutsedge [4, 20] | Plant response rating, Nutsedge [4, 21] | Plant response rating, Nutsedge [4, 22] | Plant response rating (visual injury vs untreated controls) ([16]; Rate 500 g/ha) | Plant response rating (visual injury vs untreated controls) ([16]; Rate 2000 g/ha)

CCC(CC)c1ccn(C2SCN(c3cccc(C(F)(F)F)c3)C2=O)n1 (stereo not drawn) [Compound 25]
70: Plant response rating, Bermudagrass [11, 20]
100: Plant response rating (0 to 100), Morningglory ([1]; preemergence, Rate 250 g/ha) | Plant response rating, Crabgrass [2, 23] | Plant response rating, Crabgrass [2, 17] | Plant response rating, Crabgrass [2, 18] | Plant response rating (0 to 100), Crabgrass ([2]; preemergence, Rate 250 g/ha) | Plant response rating, Crabgrass [2, 19] | Plant response rating, Goosegrass [3, 23] | Plant response rating, Goosegrass [3, 17] | Plant response rating, Goosegrass [3, 18] | Plant response rating (0 to 100), Goosegrass ([3]; preemergence, Rate 250 g/ha) | Plant response rating, Goosegrass [3, 19] | Plant response rating, Flatsedge [5] | Plant response rating, Ducksalad [6] | Plant response rating, Barnyardgrass [7] | Plant response rating, Morningglory [9, 25] | Plant response rating, Pigweed [12, 24] | Plant response rating, Pigweed [12, 25] | Plant response rating, Lambsquarters [13, 24] | Plant response rating, Lambsquarters [13, 25]
90: Plant response rating, Morningglory [1, 23] | Plant response rating, Rice (rice (Oryza saliva)) | Plant response rating, Foxtail, Giant [8, 25] | Plant response rating, Bermudagrass [11, 24] | Plant response rating, Bermudagrass [11, 25] | Plant response rating, Pigweed [12, 20] | Plant response rating, Lambsquarters [13, 20]
60: Plant response rating, Bermudagrass [11, 17]
20: Plant response rating, Morningglory [1, 17] | Plant response rating, Corn (corn (Zea mays); [24])
30: Plant response rating, Morningglory [1, 19] | Plant response rating, Foxtail, Giant [8, 20] | Plant response rating, Corn (corn (Zea mays); [25]) | Plant response rating, Ragweed, Common [14, 24]
80: Plant response rating, Foxtail, Giant [8, 24] | Plant response rating, Morningglory [9, 24]
40: Plant response rating (0 to 100), Nutsedge ([4]; preemergence, Rate 250 g/ha) | Plant response rating, Ragweed, Common [14, 25]
0: Plant response rating, Morningglory [1, 18] | Plant response rating, Nutsedge [4, 23] | Plant response rating, Nutsedge [4, 17] | Plant response rating, Nutsedge [4, 18] | Plant response rating, Nutsedge [4, 19] | Plant response rating, Sunflower (Sunflower; Rate 31 g/ha) | Plant response rating, Surinam grass [10, 17] | Plant response rating, Surinam grass [10, 20] | Plant response rating, Surinam grass [10, 24] | Plant response rating, Surinam grass [10, 25] | Plant response rating, Corn (corn (Zea mays); [20]) | Plant response rating, Ragweed, Common [14, 20]

CCC(C)c1ccn(C2SCN(c3cccc(C(F)(F)F)c3)C2=O)n1 (stereo not drawn) [Compound 20]
60: Plant response rating, Bermudagrass [11, 17]
50: Plant response rating, Nutsedge [4, 23] | Plant response rating (0 to 100), Nutsedge ([4]; preemergence, Rate 250 g/ha)
40: Plant response rating, Morningglory [1, 23] | Plant response rating (0 to 100), Morningglory ([1]; preemergence, Rate 250 g/ha)
30: Plant response rating, Morningglory [1, 19] | Plant response rating, Ragweed, Common [14, 20] | Plant response rating, Ragweed, Common [14, 24]
70: Plant response rating, Foxtail, Giant [8, 24] | Plant response rating, Pigweed [12, 20] | Plant response rating, Lambsquarters [13, 20]
80: Plant response rating, Goosegrass [3, 17] | Plant response rating, Pigweed [12, 24] | Plant response rating, Lambsquarters [13, 24]
0: Plant response rating, Morningglory [1, 17] | Plant response rating, Crabgrass [2, 17] | Plant response rating, Nutsedge [4, 17] | Plant response rating, Nutsedge [4, 19] | Plant response rating, Foxtail, Giant [8, 20] | Plant response rating, Surinam grass [10, 17] | Plant response rating, Surinam grass [10, 20] | Plant response rating, Surinam grass [10, 24] | Plant response rating, Corn (corn (Zea mays); [20]) | Plant response rating, Corn (corn (Zea mays); [24])
100: Plant response rating, Crabgrass [2, 23] | Plant response rating (0 to 100), Crabgrass ([2]; preemergence, Rate 250 g/ha) | Plant response rating, Crabgrass [2, 19] | Plant response rating, Goosegrass [3, 23] | Plant response rating (0 to 100), Goosegrass ([3]; preemergence, Rate 250 g/ha) | Plant response rating, Goosegrass [3, 19] | Plant response rating, Flatsedge [5] | Plant response rating, Rice (rice (Oryza saliva)) | Plant response rating, Ducksalad [6] | Plant response rating, Barnyardgrass [7]
90: Plant response rating, Bermudagrass [11, 20] | Plant response rating, Bermudagrass [11, 24]
20: Plant response rating, Morningglory [9, 20] | Plant response rating, Morningglory [9, 24]
